Earlier results on one compound are cited in US5216015A, “Compounds having hypocholesterolemic properties” (priority 1991, dated 1993).

One series has as its system sterol synthesis. To be noted: Schroepfer, et al., J. Biol. Chem. 252 (24), 8975 (1977); cited from earlier work.
The conditions of series [1]: Schroepfer, et al., Proc. Natl. Acad. Sci., USA 81, 6861-6865 (1984); cited from earlier work.

SMILES strings stand for the structures.

Regarding `CC(C)CCC[C@@H](C)[C@H]1CC(=O)C2=C3CC[C@H]4C[C@@H](O)CC[C@]4(C)[C@H]3CC[C@@]21C` [5α-cholest-8(14)-en-3β-ol-15-one], the “inhibition of sterol synthesis” value in the series with sterol synthesis is recorded as “potent inhibitors of sterol synthesis”. Besides, the hypocholesterolemic activity entry in series [1] was “significant hypocholesterolemic acitivity”.
